BindingDB's records for doi:10.1021/jm00007a013 (Chul Research Center, 1995)

Assay: In vitro inhibition of DHT (dihydrotestosterone) on proliferation of androgen-sensitive cancer Schionogi (SC-3) cells

Row | Structure (SMILES) | IC50 [nM]
1 | CCN(CC)C(=O)[C@H]1CCC2C3CC[C@H]4N(C)C(=O)CC[C@]4(C)C3CC[C@@]21C (stereo partly drawn) [(4aR,6aS,7S,11aR)-1,4a,6a-Trimethyl-2-oxo-hexadecahydro-indeno[5,4-f]quinoline-7-carboxylic acid diethylamide] | 463
2 | CCC(CC)N(C=O)[C@H]1CCC2C3CC[C@H]4N(C)C(=O)CC[C@]4(C)C3CC[C@@]21C (stereo partly drawn) [N-(1-Ethyl-propyl)-N-((4aR,6aS,7S,11aR)-1,4a,6a-trimethyl-2-oxo-hexadecahydro-indeno[5,4-f]quinolin-7-yl)-formamide] | 90
3 | CN1C(=O)CC[C@]2(C)C3CC[C@@]4(C)C(CC[C@@H]4N(C=O)CCC(C)(C)C)C3CC[C@@H]12 (stereo partly drawn) [N-(3,3-Dimethyl-butyl)-N-((4aR,6aS,7S,11aR)-1,4a,6a-trimethyl-2-oxo-hexadecahydro-indeno[5,4-f]quinolin-7-yl)-formamide] | 171
4 | CC(C)CCN(C=O)[C@H]1CCC2C3CC[C@H]4N(C)C(=O)CC[C@]4(C)C3CC[C@@]21C (stereo partly drawn) [N-(3-Methyl-butyl)-N-((4aR,6aS,7S,11aR)-1,4a,6a-trimethyl-2-oxo-hexadecahydro-indeno[5,4-f]quinolin-7-yl)-formamide] | 46
5 | CCCCN(C=O)[C@H]1CCC2C3CC[C@H]4N(C)C(=O)CC[C@]4(C)C3CC[C@@]21C (stereo partly drawn) [N-Butyl-N-((4aR,6aS,7S,11aR)-1,4a,6a-trimethyl-2-oxo-hexadecahydro-indeno[5,4-f]quinolin-7-yl)-formamide] | 166
6 | CCCCCCCN(C=O)[C@H]1CCC2C3CC[C@H]4N(C)C(=O)CC[C@]4(C)C3CC[C@@]21C (stereo partly drawn) [N-Heptyl-N-((4aR,6aS,7S,11aR)-1,4a,6a-trimethyl-2-oxo-hexadecahydro-indeno[5,4-f]quinolin-7-yl)-formamide] | 58
7 | CCCCCCN(C=O)[C@H]1CCC2C3CC[C@H]4N(C)C(=O)CC[C@]4(C)C3CC[C@@]21C (stereo partly drawn) [N-Hexyl-N-((4aR,6aS,7S,11aR)-1,4a,6a-trimethyl-2-oxo-hexadecahydro-indeno[5,4-f]quinolin-7-yl)-formamide] | 89

Second part, the compound after the results:

Row | IC50 [nM] | Structure (SMILES)
8 | 994 | CC(C)CN(C=O)[C@H]1CCC2C3CC[C@H]4N(C)C(=O)CC[C@]4(C)C3CC[C@@]21C (stereo partly drawn) [N-Isobutyl-N-((4aR,6aS,7S,11aR)-1,4a,6a-trimethyl-2-oxo-hexadecahydro-indeno[5,4-f]quinolin-7-yl)-formamide]
9 | 162 | CC(C)N(C=O)[C@H]1CCC2C3CC[C@H]4N(C)C(=O)CC[C@]4(C)C3CC[C@@]21C (stereo partly drawn) [N-Isopropyl-N-((4aR,6aS,7S,11aR)-1,4a,6a-trimethyl-2-oxo-hexadecahydro-indeno[5,4-f]quinolin-7-yl)-formamide]
10 | 1480 | CN(C=O)[C@H]1CCC2C3CC[C@H]4N(C)C(=O)CC[C@]4(C)C3CC[C@@]21C (stereo partly drawn) [N-Methyl-N-((4aR,6aS,7S,11aR)-1,4a,6a-trimethyl-2-oxo-hexadecahydro-indeno[5,4-f]quinolin-7-yl)-formamide]
11 | 50 | CCCCCCCCN(C=O)[C@H]1CCC2C3CC[C@H]4N(C)C(=O)CC[C@]4(C)C3CC[C@@]21C (stereo partly drawn) [N-Octyl-N-((4aR,6aS,7S,11aR)-1,4a,6a-trimethyl-2-oxo-hexadecahydro-indeno[5,4-f]quinolin-7-yl)-formamide]
12 | 96 | CCCCCN(C=O)[C@H]1CCC2C3CC[C@H]4N(C)C(=O)CC[C@]4(C)C3CC[C@@]21C (stereo partly drawn) [N-Pentyl-N-((4aR,6aS,7S,11aR)-1,4a,6a-trimethyl-2-oxo-hexadecahydro-indeno[5,4-f]quinolin-7-yl)-formamide]
13 | 989 | CCCN(C=O)[C@H]1CCC2C3CC[C@H]4N(C)C(=O)CC[C@]4(C)C3CC[C@@]21C (stereo partly drawn) [N-Propyl-N-((4aR,6aS,7S,11aR)-1,4a,6a-trimethyl-2-oxo-hexadecahydro-indeno[5,4-f]quinolin-7-yl)-formamide]
